Columns and labels:
[1] = biological target: T1, hAChE (human acetylcholinesterase) (Homo sapiens, UniProt P22303); test: enzyme inhibition assay; assay type: biochemical
[2] = biological target: T1, hAChE (human acetylcholinesterase); test: biochemical
physchem = conditions: pbs
[3] = biological target: T1, hAChE (human acetylcholinesterase); test: enzyme inhibition assay; assay type: biochemical; conditions: footnote d not shown: inhibition or residual activity and concentration unknown

T1 sequence (P22303 32-614): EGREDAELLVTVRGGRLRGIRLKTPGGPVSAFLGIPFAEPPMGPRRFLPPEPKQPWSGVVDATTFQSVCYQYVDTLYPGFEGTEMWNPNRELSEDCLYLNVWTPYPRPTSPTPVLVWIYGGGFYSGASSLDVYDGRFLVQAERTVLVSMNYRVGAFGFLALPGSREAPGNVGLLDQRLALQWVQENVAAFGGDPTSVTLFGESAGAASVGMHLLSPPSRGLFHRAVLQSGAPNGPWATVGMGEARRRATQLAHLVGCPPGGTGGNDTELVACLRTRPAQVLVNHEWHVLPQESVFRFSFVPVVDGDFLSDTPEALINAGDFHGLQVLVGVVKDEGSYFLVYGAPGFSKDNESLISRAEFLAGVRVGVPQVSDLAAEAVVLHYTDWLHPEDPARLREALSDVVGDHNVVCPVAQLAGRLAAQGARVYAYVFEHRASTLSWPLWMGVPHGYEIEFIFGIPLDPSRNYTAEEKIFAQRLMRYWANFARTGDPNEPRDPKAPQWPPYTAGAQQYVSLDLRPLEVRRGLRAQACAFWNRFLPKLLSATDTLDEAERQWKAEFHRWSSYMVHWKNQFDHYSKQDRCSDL

Compound	IC50 [1]	also measured
CN(CCC1CCCCCC1)Cc1c[nH]c2c(SC(=O)N(C)C)cccc12 [compound 2]	11.1 µM	–
CC[Se]C(=O)N(C)c1cccc2c(CN(C)CCC3CCCCCC3)c[nH]c12 [compound 24]	30.2 µM	–
CN(CCC1CCCCCC1)Cc1c[nH]c2c([Se]C(=O)N(C)C)cccc12 [compound 3]	9.75 µM	–
CN(CCC1CCCCCC1)Cc1c[nH]c2c(N(C)C(=O)Oc3c(F)c(F)c(F)c(F)c3F)cccc12 [compound 11]	0.788 ± 0.176 µM	–
CN(CCC1CCCCCC1)Cc1c[nH]c2c(N(C)C(=O)OC(C(F)(F)F)(C(F)(F)F)C(F)(F)F)cccc12 [compound 9]	6.7 µM	–
CN(CCC1CCCCCC1)Cc1c[nH]c2c(N(C)C(=O)n3cnc([N+](=O)[O-])c3)cccc12 [compound 27]	15.9 µM	–
CN(CCC1CCCCCC1)Cc1c[nH]c2c(NC(=O)n3ccnc3)cccc12 [compound 33, N-(3-(((2-Cycloheptylethyl)(methyl)amino)methyl)-1H-indol-7-yl)-1H-imidazole-1-carboxamide]	–	IC50 [2]: 17.3 µM
CN(CCC1CCCCCC1)Cc1c[nH]c2c(N(C)C(=O)Sc3nnnn3C)cccc12 [compound 23]	16.9 µM	half-life (physchem): ~38 days
CN(CCC1CCCCCC1)Cc1c[nH]c2c([Te]C(=O)N(C)C)cccc12 [compound 4]	13.2 µM	–
CN(CCC1CCCCCC1)Cc1c[nH]c2c(N(C)C(=O)[Se]c3ccccc3)cccc12 [compound 25]	–	% (footnote d) [3]: 53.6 ± 2.7%
CN(CCC1CCCCCC1)Cc1c[nH]c2c(N(C)C(=O)On3ccnc3)cccc12 [compound 14]	24.2 µM	half-life (physchem): ~18 days
CN(CCC1CCCCCC1)Cc1c[nH]c2c(N(C)C(=O)Sc3nncn3C)cccc12 [compound 22]	21.8 µM	half-life (physchem): ~25 days
CN(CCC1CCCCCC1)Cc1c[nH]c2c(N(C)C(=O)OCC(F)(F)F)cccc12 [compound 7]	–	% (footnote d) [3]: 51.6 ± 0.8%
CN(CCC1CCCCCC1)Cc1c[nH]c2c(N(C)C(=O)F)cccc12 [compound 6]	0.177 ± 0.006 µM	half-life (physchem): ~4 days
CN(CCC1CCCCCC1)Cc1c[nH]c2c(N(C)C(=O)n3ccnc3)cccc12 [compound 26]	47.3 µM	half-life (physchem): ~14 days
CN(CCC1CCCCCC1)Cc1c[nH]c2c(N(C)C(=O)OC(C(F)(F)F)C(F)(F)F)cccc12 [compound 8]	25.8 µM	–
CN(CCC1CCCCCC1)Cc1c[nH]c2c(N(C)C(=O)Oc3ccccc3)cccc12 [compound 10]	21.2 µM	–

— paper doi:10.1101/2025.08.20.671340v1 (biorxiv, 2025)
